Among the data in the Kinase Knowledgebase extract (Sharma et al. 2016) are IC50 values, retold here.

By IC50 is commonly meant the concentration that inhibits the measured activity by half. A high value points to weaker potency.

Molecules are shown by their SMILES. A value given as a limit tells only on which side of the number the result lay.

One assay deals with PIK3CA (human) (UniProt P42336). The assay can be described thus: Enzyme Assay.
A further assay has as its target PIK3CB (Human) (UniProt P42338). Nature of the assay: Enzyme Assay.
Assay [1] addresses PIK3CD (Human) (UniProt O00329). Nature of the assay: Enzyme Assay.
The target in the next assay is PIK3CG (human) (UniProt P48736). The assay can be described thus: Enzyme Assay.
The target in assay [2] is PIK3CD (Human) (UniProt O00329). The assay can be described thus: Cell-Based Assay. To be noted: b cells.
Sequence of PIK3CD (Human) (O00329 whole entry, looked up): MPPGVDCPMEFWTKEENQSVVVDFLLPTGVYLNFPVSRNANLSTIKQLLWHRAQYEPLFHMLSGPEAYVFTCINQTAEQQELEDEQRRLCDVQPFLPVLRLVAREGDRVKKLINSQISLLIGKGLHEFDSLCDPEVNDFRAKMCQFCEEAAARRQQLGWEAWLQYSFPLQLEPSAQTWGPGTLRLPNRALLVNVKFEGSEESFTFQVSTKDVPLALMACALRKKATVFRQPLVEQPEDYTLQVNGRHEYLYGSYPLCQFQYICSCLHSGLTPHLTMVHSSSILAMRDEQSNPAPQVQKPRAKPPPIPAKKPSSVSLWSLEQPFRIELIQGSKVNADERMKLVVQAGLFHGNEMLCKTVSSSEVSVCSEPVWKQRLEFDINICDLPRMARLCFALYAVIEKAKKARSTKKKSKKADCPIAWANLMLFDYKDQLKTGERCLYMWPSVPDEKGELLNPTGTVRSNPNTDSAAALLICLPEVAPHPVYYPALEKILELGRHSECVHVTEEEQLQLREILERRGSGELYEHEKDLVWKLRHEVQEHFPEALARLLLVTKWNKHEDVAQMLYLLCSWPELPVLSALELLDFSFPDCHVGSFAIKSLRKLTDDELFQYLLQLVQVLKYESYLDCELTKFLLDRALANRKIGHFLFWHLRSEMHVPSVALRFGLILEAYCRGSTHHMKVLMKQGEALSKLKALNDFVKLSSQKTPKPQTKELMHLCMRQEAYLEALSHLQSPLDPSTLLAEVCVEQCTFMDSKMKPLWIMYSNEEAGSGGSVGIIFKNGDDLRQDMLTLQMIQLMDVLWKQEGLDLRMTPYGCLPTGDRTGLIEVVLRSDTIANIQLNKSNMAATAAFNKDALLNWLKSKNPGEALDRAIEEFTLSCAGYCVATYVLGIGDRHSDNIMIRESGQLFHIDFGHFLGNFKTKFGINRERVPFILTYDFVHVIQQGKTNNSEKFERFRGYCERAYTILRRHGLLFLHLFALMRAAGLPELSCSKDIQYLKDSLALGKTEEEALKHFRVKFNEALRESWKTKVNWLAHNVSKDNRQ

Sequence of PIK3CA (human) (P42336 whole entry, looked up): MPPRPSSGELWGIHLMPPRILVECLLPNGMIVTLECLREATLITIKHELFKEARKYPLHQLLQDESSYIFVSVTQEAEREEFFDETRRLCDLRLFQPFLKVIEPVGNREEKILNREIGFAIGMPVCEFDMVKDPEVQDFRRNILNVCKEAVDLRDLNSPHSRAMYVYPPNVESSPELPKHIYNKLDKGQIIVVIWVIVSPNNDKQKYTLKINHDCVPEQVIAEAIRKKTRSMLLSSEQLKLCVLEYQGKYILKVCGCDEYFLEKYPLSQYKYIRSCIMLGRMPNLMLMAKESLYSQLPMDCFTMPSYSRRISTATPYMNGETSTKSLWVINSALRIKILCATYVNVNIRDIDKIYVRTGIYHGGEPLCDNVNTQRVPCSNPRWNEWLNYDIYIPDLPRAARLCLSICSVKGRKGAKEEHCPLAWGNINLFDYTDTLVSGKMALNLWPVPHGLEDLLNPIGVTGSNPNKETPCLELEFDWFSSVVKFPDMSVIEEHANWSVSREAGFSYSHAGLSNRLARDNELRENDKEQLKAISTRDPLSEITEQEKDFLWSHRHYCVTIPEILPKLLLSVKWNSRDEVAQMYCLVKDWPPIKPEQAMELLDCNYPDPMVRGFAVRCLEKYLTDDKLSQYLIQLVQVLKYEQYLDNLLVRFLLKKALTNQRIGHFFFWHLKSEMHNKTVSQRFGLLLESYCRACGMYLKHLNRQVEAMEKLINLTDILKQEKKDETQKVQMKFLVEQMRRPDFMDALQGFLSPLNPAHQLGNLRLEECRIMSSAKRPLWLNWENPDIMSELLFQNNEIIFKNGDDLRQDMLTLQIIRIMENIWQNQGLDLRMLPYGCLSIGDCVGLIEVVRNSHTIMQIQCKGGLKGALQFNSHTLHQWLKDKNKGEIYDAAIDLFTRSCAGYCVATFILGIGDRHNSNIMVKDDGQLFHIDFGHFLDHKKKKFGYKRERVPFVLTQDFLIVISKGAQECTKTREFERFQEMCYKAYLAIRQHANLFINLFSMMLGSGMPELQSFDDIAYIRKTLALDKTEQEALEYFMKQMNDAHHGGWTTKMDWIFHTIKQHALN
Sequence of PIK3CB (Human) (P42338 whole entry, looked up): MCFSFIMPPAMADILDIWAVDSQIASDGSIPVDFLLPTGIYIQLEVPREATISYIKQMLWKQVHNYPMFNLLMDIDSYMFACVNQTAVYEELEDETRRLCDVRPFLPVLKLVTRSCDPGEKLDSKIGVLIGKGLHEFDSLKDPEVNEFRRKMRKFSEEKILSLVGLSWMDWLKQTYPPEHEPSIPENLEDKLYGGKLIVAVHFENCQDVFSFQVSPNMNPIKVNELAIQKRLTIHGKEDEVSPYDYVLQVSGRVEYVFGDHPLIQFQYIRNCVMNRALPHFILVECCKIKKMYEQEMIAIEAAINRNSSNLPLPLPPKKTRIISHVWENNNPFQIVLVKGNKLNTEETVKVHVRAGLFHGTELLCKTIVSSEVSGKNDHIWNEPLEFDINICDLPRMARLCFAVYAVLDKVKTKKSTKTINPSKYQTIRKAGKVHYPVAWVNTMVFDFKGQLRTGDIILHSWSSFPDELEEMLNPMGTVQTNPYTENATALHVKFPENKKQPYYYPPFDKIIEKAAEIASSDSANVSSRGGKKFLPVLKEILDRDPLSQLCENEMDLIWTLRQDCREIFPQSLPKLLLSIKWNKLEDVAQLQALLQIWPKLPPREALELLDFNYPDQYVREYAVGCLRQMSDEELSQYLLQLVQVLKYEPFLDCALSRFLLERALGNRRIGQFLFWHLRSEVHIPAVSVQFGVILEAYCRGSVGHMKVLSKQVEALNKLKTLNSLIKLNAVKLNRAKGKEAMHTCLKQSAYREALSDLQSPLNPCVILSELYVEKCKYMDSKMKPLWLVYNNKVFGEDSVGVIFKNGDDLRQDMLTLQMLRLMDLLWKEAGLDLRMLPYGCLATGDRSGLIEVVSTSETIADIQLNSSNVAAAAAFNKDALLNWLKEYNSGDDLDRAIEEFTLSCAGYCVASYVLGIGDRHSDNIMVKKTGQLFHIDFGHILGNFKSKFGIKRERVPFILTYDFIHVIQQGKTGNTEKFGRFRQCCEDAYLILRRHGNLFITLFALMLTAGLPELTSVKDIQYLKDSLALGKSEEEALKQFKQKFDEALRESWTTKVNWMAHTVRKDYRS
Sequence of PIK3CG (human) (P48736 whole entry, looked up): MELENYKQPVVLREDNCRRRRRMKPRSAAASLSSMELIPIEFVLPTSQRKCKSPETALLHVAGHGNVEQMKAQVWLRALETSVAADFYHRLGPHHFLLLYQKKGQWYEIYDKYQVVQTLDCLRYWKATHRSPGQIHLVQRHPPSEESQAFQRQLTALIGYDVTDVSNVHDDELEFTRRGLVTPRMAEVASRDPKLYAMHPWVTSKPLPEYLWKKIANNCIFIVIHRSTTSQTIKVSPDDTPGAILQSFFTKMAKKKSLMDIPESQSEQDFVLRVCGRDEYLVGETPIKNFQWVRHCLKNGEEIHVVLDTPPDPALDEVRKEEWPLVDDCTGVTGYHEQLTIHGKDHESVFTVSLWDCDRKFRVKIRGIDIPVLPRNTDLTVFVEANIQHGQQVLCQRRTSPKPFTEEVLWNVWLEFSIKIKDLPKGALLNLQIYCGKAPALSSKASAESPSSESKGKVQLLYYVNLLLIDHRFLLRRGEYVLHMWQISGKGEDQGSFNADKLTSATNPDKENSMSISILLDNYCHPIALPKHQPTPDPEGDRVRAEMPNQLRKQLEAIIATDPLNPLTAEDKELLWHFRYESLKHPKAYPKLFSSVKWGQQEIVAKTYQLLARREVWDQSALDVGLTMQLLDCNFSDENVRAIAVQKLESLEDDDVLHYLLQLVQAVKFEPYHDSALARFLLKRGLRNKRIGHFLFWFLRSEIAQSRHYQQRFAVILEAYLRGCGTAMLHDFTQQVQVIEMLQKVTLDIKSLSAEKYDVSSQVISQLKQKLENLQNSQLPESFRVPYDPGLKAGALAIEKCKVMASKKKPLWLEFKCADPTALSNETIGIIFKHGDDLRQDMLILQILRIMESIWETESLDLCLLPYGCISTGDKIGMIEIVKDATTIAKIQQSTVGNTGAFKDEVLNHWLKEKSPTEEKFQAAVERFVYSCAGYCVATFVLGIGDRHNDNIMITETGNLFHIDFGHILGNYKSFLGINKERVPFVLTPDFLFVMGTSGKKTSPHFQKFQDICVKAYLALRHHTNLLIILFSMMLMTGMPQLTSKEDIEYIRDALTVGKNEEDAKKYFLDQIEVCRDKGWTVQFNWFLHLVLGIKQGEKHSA

Regarding `C[C@H](Nc1ncnc2[nH]cnc12)c1cc2cccc(Cl)c2nc1-c1ccccc1F`, the IC50 is 26000 nM on PIK3CA (human); 420 nM at PIK3CB (Human); 3.2 nM against PIK3CD (Human) [1]; 67 nM on PIK3CG (human); 3.6 nM on PIK3CD (Human) [2].

Take `C[C@H](Nc1ncnc2[nH]cnc12)c1nc2c(Cl)cccc2nc1-c1ccccn1`: the IC50 turned out to be 125000 nM against PIK3CA (human); 3600 nM against PIK3CB (Human); 59 nM against PIK3CD (Human) [1]; 6600 nM at PIK3CG (human); 21 nM against PIK3CD (Human) [2].

For the molecule `C[C@H](Nc1ncnc2[nH]cnc12)c1cc2ccc(F)cc2nc1-c1ccccc1S(C)(=O)=O`, the IC50 against PIK3CA (human) stood at 20000 nM; on PIK3CB (Human) it was 2100 nM; against PIK3CD (Human) [1], 11 nM; against PIK3CG (human), 340 nM; against PIK3CD (Human) [2], 6.8 nM.

With `C[C@H](Nc1ncnc2[nH]cnc12)c1nc2cccc(Cl)c2nc1-c1ccccn1`, the IC50 at PIK3CA (human) was found to be 46000 nM; against PIK3CB (Human), 1090 nM; against PIK3CD (Human) [1], 5.2 nM; on PIK3CG (human), 440 nM; at PIK3CD (Human) [2], 12 nM.

For the molecule `C[C@H](Nc1ncnc2[nH]cnc12)c1cc2cccc(F)c2nc1-c1cccc(F)c1`, the IC50 is 1100 nM against PIK3CB (Human), 10 nM against PIK3CD (Human) [1], 250 nM at PIK3CG (human) and 5.2 nM against PIK3CD (Human) [2].

As to `Cc1ccccc1-c1nc2c(C)cccc2cc1COc1ncnc2[nH]ccc12`, the IC50 is above 125000 nM on PIK3CA (human); 3300 nM on PIK3CB (Human); 38 nM against PIK3CD (Human) [1]; 710 nM on PIK3CG (human); 270 nM against PIK3CD (Human) [2].

As to `C[C@H](Nc1ncnc2[nH]cnc12)c1cc2cccc(Cl)c2nc1-c1cccc(F)c1`, the concentration for half-maximal inhibition (IC50) was 5700 nM at PIK3CA (human); 370 nM against PIK3CB (Human); 12 nM against PIK3CD (Human) [1]; 38 nM on PIK3CG (human); 2.4 nM on PIK3CD (Human) [2].

Consider `C[C@H](Nc1ncnc2[nH]cnc12)c1cc2c(F)cc(F)cc2nc1-c1ccccn1`, for which the IC50 against PIK3CA (human) was found to be 6900 nM; against PIK3CB (Human) it was 1900 nM; against PIK3CD (Human) [1], 16 nM; against PIK3CG (human) it was 610 nM.

Consider `C[C@H](Nc1ncnc2[nH]cnc12)c1nc2ccc(F)cc2nc1-c1ccccn1`, for which the half-inhibitory concentration (IC50) against PIK3CA (human) is 22000 nM; against PIK3CB (Human) it was 4100 nM; at PIK3CD (Human) [1], 24 nM; against PIK3CG (human), 890 nM; against PIK3CD (Human) [2] it was 18 nM.

Take `Cc1ccccc1-c1nc2c(C)cccc2cc1[C@H](C)Oc1ncnc2[nH]ccc12`: the IC50 against PIK3CA (human) amounted to 6500 nM; against PIK3CB (Human), 1000 nM; against PIK3CD (Human) [1], 7.1 nM; against PIK3CG (human), 93 nM; against PIK3CD (Human) [2], 4.3 nM.

Take `Cc1ccccc1-n1c(CNc2nc(N)nc3[nH]cnc23)nc2cccc(C)c2c1=O`: the IC50 against PIK3CA (human) came to 10000 nM; at PIK3CB (Human), 1800 nM; at PIK3CD (Human) [1] it was 25 nM; on PIK3CG (human), 140 nM.

Take `Cc1nnc2ccc(Cl)cc2c1N1CC(C)(C)c2ccc(N3CCOCC3)cc21`: the concentration for half-maximal inhibition (IC50) on PIK3CD (Human) [1] turned out to be 19000 nM.

Consider `Fc1cccc(-c2nc3c(Cl)cccc3cc2CNc2ncnc3[nH]cnc23)c1`, for which the IC50 stood at 52000 nM against PIK3CA (human); 3700 nM against PIK3CB (Human); 82 nM against PIK3CD (Human) [1]; 840 nM at PIK3CG (human); 28 nM against PIK3CD (Human) [2].

For `C[C@H](Nc1ncnc2[nH]cnc12)c1cc2cccc(F)c2nc1-c1cccnc1`, the IC50 against PIK3CA (human) stood at 81000 nM; against PIK3CB (Human) it was 2900 nM; on PIK3CD (Human) [1], 16 nM; at PIK3CG (human), 830 nM; at PIK3CD (Human) [2], 15 nM.

Take `COc1ccccc1-c1nc2c(C)cccc2cc1CSc1ncnc2[nH]cnc12`: the IC50 on PIK3CA (human) was 53000 nM; against PIK3CB (Human), 49000 nM; against PIK3CD (Human) [1], 240 nM; against PIK3CG (human) it was 8600 nM; at PIK3CD (Human) [2] it was 840 nM.

As to `Cc1ccccc1-c1nc2c(C)cccc2cc1CCc1ncnc2[nH]cnc12`, the 50% inhibitory concentration (IC50) was above 125000 nM at PIK3CA (human), above 12000 nM on PIK3CB (Human), 3600 nM against PIK3CD (Human) [1] and 18000 nM at PIK3CG (human).

On to `C[C@H](Nc1ncnc2[nH]cnc12)c1cc2cccc(F)c2nc1-c1cc(F)cc(F)c1`, for which the IC50 is 9000 nM against PIK3CA (human); 4500 nM against PIK3CB (Human); 12 nM against PIK3CD (Human) [1]; 360 nM at PIK3CG (human); 11 nM at PIK3CD (Human) [2].

For the molecule `C[C@H](Nc1ncnc2[nH]cnc12)c1cc2ccc(F)cc2nc1-c1cccc(F)c1`, the IC50 was 14000 nM against PIK3CA (human); 1300 nM at PIK3CB (Human); 6.6 nM against PIK3CD (Human) [1]; 120 nM at PIK3CG (human); 13 nM against PIK3CD (Human) [2].

For `C[C@H](Nc1ncnc2[nH]cnc12)c1cc2cccc(Cl)c2nc1-c1cccc(S(C)(=O)=O)c1`, the half-maximal inhibitory concentration (IC50) against PIK3CA (human) was 47000 nM; against PIK3CB (Human), 1100 nM; against PIK3CD (Human) [1], 15 nM; against PIK3CG (human), 770 nM; against PIK3CD (Human) [2], 56 nM.

In the case of `Cc1ccccc1-c1nc2c(C)cccc2cc1CNc1ncnc2[nH]cnc12`, the IC50 came to 37000 nM against PIK3CA (human); 2100 nM against PIK3CB (Human); 41 nM on PIK3CD (Human) [1]; 290 nM against PIK3CG (human); 51 nM against PIK3CD (Human) [2].

Consider `Cc1ncc(F)cc1-c1nc2c(Cl)cccc2cc1[C@H](C)Nc1ncnc2[nH]cnc12`, for which the IC50 at PIK3CB (Human) was 1800 nM; at PIK3CD (Human) [1] it was 18 nM; against PIK3CG (human) it was 230 nM; at PIK3CD (Human) [2] it was 17 nM.

As for `Cc1ccccc1-c1nc2c(C)cccc2cc1[C@@H](C)Oc1ncnc2[nH]ccc12`, the 50% inhibitory concentration (IC50) is above 125000 nM against PIK3CA (human), 7600 nM against PIK3CB (Human), 2600 nM at PIK3CD (Human) [1] and 22000 nM on PIK3CG (human).

`Clc1ccccc1-c1nc2c(Cl)cccc2cc1CNc1ncnc2[nH]cnc12`: the IC50 was found to be 46000 nM at PIK3CA (human); 3900 nM at PIK3CB (Human); 39 nM at PIK3CD (Human) [1]; 450 nM against PIK3CG (human); 25 nM against PIK3CD (Human) [2].

Consider `C[C@H](Nc1ncnc2[nH]cnc12)c1cc2cccc(F)c2nc1-c1cc(F)ccc1F`, for which the concentration for half-maximal inhibition (IC50) was found to be 125000 nM on PIK3CA (human); 1900 nM on PIK3CB (Human); 18 nM against PIK3CD (Human) [1]; 560 nM against PIK3CG (human); 13 nM on PIK3CD (Human) [2].

As to `C[C@H](Nc1ncnc2[nH]cnc12)c1cc2cccc(C#N)c2nc1-c1ccccn1`, the IC50 against PIK3CA (human) was determined as 62000 nM; on PIK3CB (Human), 5200 nM; at PIK3CD (Human) [1], 43 nM; against PIK3CG (human), 1100 nM; against PIK3CD (Human) [2], 47 nM.

Regarding `C[C@H](Nc1ncnc2[nH]cnc12)c1cc2cccc(F)c2nc1-c1ccccn1`, the IC50 at PIK3CA (human) stood at 125000 nM; on PIK3CB (Human), 2200 nM; against PIK3CD (Human) [1], 29 nM; against PIK3CG (human), 1700 nM; on PIK3CD (Human) [2], 14 nM.

Take `C[C@H](Nc1ncnc2[nH]cnc12)c1cc2cccc(Cl)c2nc1-c1ccccn1`: the IC50 against PIK3CA (human) was 14000 nM; against PIK3CB (Human) it was 670 nM; against PIK3CD (Human) [1] it was 66 nM; on PIK3CG (human), 150 nM; on PIK3CD (Human) [2], 3.2 nM.

`Cc1ncccc1-c1nc2c(Cl)cccc2cc1[C@H](C)Nc1ncnc2[nH]cnc12`: the 50% inhibitory concentration (IC50) against PIK3CA (human) came out at 13000 nM; against PIK3CB (Human), 1260 nM; on PIK3CD (Human) [1] it was 18 nM; on PIK3CG (human), 120 nM; against PIK3CD (Human) [2], 4.3 nM.

In the case of `C[C@H](Nc1ncnc2[nH]cnc12)c1cc2cccc(Cl)c2nc1-c1ccccc1Cl`, the IC50 on PIK3CA (human) was 36000 nM; at PIK3CB (Human), 1500 nM; against PIK3CD (Human) [1] it was 8 nM; against PIK3CG (human) it was 140 nM; at PIK3CD (Human) [2], 3.6 nM.

Take `C[C@H](Nc1ncnc2[nH]cnc12)c1nc2cccc(Cl)c2nc1-c1cccc(F)c1`: the half-maximal inhibitory concentration (IC50) against PIK3CA (human) is 8100 nM; against PIK3CB (Human), 1400 nM; on PIK3CD (Human) [1], 10 nM; on PIK3CG (human) it was 160 nM; against PIK3CD (Human) [2] it was 14 nM.

Consider `COc1ccccc1-c1nc2c(C)cccc2cc1COc1ncnc2[nH]cnc12`, for which the IC50 against PIK3CA (human) was above 125000 nM; against PIK3CB (Human), 2900 nM; against PIK3CD (Human) [1], 44 nM; against PIK3CG (human), 2600 nM; against PIK3CD (Human) [2], 88 nM.

On to `Cc1ccccc1-c1nc2c(C)cccc2cc1COc1ncnc2[nH]cnc12`, for which the concentration for half-maximal inhibition (IC50) at PIK3CA (human) was 42000 nM; against PIK3CB (Human), 1700 nM; against PIK3CD (Human) [1] it was 17 nM; against PIK3CG (human), 580 nM; at PIK3CD (Human) [2], 47 nM.
